Measured values from US8741934B2, “Inhibitors of ion channels” (Pfizer Limited, priority 2007, dated 2014).

target: T1, hSCN3A sodium channels (Homo sapiens, UniProt Q9NY46); assay: hSCN3A electrophysiology, whole-cell patch-clamp or PatchXpress 7000, estimated IC-50 (Table B); assay type: cell-based; settings: estimated IC-50; hSCN3A cells, whole-cell patch-clamp or PatchXpress 7000; read-out: SCN3A EIC-50
T1 construct: expressed in transfected cells
How it was run: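 A 20 msec test pulse to 0 mV followed an 8 sec conditioning prepulse at each cell's measured V1/2. Room-temperature (22-24° C) recordings on HEK cells stably expressing the channel, conventional or PatchXpress.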

T1 sequence (Q9NY46 whole entry): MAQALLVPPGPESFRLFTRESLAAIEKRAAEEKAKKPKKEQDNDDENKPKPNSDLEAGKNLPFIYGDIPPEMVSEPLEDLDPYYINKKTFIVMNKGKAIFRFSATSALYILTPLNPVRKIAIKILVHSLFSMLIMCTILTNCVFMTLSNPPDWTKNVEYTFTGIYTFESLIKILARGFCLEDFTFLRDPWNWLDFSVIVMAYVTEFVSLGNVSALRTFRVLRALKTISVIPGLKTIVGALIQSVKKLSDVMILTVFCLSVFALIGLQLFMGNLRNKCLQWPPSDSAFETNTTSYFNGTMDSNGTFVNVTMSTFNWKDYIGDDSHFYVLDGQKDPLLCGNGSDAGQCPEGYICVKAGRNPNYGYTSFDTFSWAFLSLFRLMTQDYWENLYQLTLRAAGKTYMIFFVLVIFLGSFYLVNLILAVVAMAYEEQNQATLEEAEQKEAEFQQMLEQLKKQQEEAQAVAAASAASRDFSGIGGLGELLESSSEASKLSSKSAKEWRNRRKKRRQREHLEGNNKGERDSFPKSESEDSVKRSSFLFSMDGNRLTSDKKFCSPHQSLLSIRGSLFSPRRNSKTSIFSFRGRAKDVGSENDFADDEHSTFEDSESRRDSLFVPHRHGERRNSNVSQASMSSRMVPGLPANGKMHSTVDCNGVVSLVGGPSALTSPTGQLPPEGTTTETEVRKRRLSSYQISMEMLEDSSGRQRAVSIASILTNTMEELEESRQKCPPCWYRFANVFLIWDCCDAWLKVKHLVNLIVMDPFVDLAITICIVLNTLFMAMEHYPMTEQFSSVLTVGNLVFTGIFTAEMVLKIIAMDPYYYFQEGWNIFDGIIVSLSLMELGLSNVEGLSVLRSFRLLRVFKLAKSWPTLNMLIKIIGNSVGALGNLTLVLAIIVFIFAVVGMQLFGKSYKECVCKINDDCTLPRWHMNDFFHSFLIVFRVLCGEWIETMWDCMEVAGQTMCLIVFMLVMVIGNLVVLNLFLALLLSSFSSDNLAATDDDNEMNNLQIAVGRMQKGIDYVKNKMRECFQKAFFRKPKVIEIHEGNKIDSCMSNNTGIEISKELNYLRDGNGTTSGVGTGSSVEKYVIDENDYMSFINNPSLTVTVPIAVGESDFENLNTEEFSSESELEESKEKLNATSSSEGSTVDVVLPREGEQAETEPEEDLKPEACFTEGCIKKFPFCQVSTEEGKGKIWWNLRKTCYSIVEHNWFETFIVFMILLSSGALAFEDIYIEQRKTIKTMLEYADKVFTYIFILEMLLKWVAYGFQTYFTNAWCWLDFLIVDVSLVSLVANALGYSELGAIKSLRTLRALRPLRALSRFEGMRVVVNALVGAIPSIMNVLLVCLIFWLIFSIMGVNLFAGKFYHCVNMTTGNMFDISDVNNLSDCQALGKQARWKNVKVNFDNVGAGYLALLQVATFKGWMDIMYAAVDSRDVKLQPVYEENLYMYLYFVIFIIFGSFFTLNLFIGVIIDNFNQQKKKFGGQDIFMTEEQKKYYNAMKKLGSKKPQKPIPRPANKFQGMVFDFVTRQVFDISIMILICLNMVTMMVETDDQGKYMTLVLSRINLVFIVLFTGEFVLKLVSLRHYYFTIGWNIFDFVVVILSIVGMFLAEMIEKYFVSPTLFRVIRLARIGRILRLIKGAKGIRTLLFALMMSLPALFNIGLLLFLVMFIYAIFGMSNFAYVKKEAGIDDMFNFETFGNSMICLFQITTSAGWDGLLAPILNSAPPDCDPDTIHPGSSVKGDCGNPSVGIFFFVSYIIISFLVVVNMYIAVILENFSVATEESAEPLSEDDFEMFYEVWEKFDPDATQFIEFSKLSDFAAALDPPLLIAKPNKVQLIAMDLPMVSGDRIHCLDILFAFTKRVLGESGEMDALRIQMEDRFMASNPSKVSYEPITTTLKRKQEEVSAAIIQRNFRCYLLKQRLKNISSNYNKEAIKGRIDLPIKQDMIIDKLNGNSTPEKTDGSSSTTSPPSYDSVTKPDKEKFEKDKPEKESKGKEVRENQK

Compound	IC50
O=C(NCc1cccc(C(F)(F)F)c1)c1ccc(S(=O)(=O)Nc2ncc(Cl)s2)c(Cl)c1 [Example 372, 3-Chloro-4-{[(5-chloro-1,3-thiazol-2-yl)amino]sulfonyl}-N-[3-(trifluoromethyl)benzyl] benzamide]	2260 nM
O=C(NCc1ccc(C(F)(F)F)cc1)c1ccc(S(=O)(=O)Nc2ncc(Cl)s2)c(Cl)c1 [Example 373, 3-Chloro-4-{[(5-chloro-1,3-thiazol-2-yl)amino]sulfonyl}-N-[4-(trifluoromethyl)benzyl] benzamide]	490 nM
O=C(NCc1ccc(C(F)(F)F)c(Cl)c1)c1ccc(S(=O)(=O)Nc2ncns2)cc1Cl [Example 374, 2-Chloro-N-[3-chloro-4-(trifluoromethyl)benzyl]-4-[(1,2,4-thiadiazol-5-ylamino)sulfonyl]benzamide]	230 nM
O=C(NCc1ccc(C(F)(F)F)c(F)c1)c1ccc(S(=O)(=O)Nc2ncns2)cc1Cl [Example 375, 2-Chloro-N-[3-fluoro-4-(trifluoromethyl)benzyl]-4-[(1,2,4-thiadiazol-5-ylamino)sulfonyl]benzamide]	450 nM
O=C(NCc1ccc(OC(F)(F)F)c(F)c1)c1ccc(S(=O)(=O)Nc2ncns2)cc1Cl [Example 376, 2-Chloro-N-[3-fluoro-4-(trifluoromethoxy)benzyl]-4-[(1,2,4-thiadiazol-5-ylamino)sulfonyl] benzamide]	590 nM
O=C(NCc1ccc(C(F)(F)F)cc1)c1ccc(S(=O)(=O)Nc2ncns2)cc1Cl [Example 377, 2-Chloro-4-[(1,2,4-thiadiazol-5-ylamino)sulfonyl]-N-[4-(trifluoromethyl)benzyl] benzamide]	850 nM
O=C(NCc1ccc(OC(F)(F)F)c(Cl)c1)c1ccc(S(=O)(=O)Nc2ncns2)cc1Cl [Example 378, 2-Chloro-N-[3-chloro-4-(trifluoromethoxy)benzyl]-4-[(1,2,4-thiadiazol-5-ylamino)sulfonyl] benzamide]	180 nM
Cn1nc(Cc2ccc(Cl)cc2)cc1NC(=O)c1ccc(S(=O)(=O)Nc2ncc(Cl)s2)c(F)c1 [Example 379, N-[3-(4-chlorobenzyl)-1-methyl-1H-pyrazol-5-yl]-4-{[(5-chloro-1,3-thiazol-2-yl)-amino]sulfonyl}-3-fluorobenzamide]	20 nM
O=C(Nc1ccn(Cc2ccc(Cl)cc2)n1)c1ccc(S(=O)(=O)Nc2ncc(Cl)s2)c(F)c1 [Example 380, N-[1-(4-chlorobenzyl)-1H-pyrazol-3-yl]-4-{[(5-chloro-1,3-thiazol-2-yl)amino]sulfonyl}-3-fluorobenzamide]	170 nM
O=C(Nc1cnn(Cc2ccc(Cl)cc2)c1)c1ccc(S(=O)(=O)Nc2ncc(Cl)s2)c(F)c1 [Example 381, N-[1-(4-chlorobenzyl)-1H-pyrazol-4-yl]-4-{[(5-chloro-1,3-thiazol-2-yl)amino]sulfonyl}-3-fluorobenzamide]	120 nM
O=C(NCC1(c2ccc(Cl)cc2)CC1)c1ccc(S(=O)(=O)Nc2ncns2)c(F)c1 [Example 382, N-{[1-(4-chlorophenyl)cyclopropyl]methyl}-3-fluoro-4-[(1,2,4-thiadiazol-5-ylamino)sulfonyl]benzamide]	140 nM
O=C(c1ccc(S(=O)(=O)Nc2nccs2)cc1)N1CCC[C@H]1COc1cccc(Cl)c1 [Example 384, 4-({(2S)-2-[(3-chlorophenoxy)methyl]pyrrolidin-1-yl}carbonyl)-N-1,3-thiazol-2-ylbenzenesulfonamide]	350 nM
O=C(NCCNc1ccc(Cl)cc1)c1ccc(S(=O)(=O)Nc2nccs2)cc1 [Example 385, N-{2-[(4-chlorophenyl)amino]ethyl}-4-[(1,3-thiazol-2-ylamino)sulfonyl]benzamide]	780 nM
O=C(NCc1cccs1)c1ccc(S(=O)(=O)Nc2nccs2)cc1 [Example 386, 4-[(1,3-Thiazol-2-ylamino)sulfonyl]-N-(2-thienylmethyl)benzamide]	3410 nM
CC(C)(C)c1ccc(CNC(=O)c2ccc(S(=O)(=O)Nc3nccs3)cc2)cc1 [Example 387, N-(4-tert-butylbenzyl)-4-[(1,3-thiazol-2-ylamino)sulfonyl]benzamide]	170 nM
